{"source": "paper PMC6237300", "about": "“Influenza B viruses circulated during last 5 years in Mongolia” (PLoS ONE, 2018)", "molecular_target": "NA of influenza B clinical isolates (Influenza B virus, UniProt A0A1X9RX69)", "assay_type": "biochemical"}
{"smiles": "CCC(CC)[C@H](NC(C)=O)[C@@H]1[C@H](O)[C@@H](C(=O)O)C[C@H]1N=C(N)N", "note": "[Peramivir, peramivir]", "values": [{"measurement": "IC50", "value": "0.47 ± 0.4", "unit": "nM"}]}
